Target: Hepatic lipase (Mouse)
Assay: Inhibition of hepatic lipase in endothelial lipase knock-out mouse plasma using D31-POPC-HDL as substrate incubated for 2 hrs by LC/MS analysis

COCCS(=O)(=O)C(C(=O)NCC(=O)NC1CC1)c1nc2ccc(-c3ccc(F)nc3)cc2s1 (stereo unspecified)
IC50: 26 µM

Source: BindingDB's records for doi:10.1016/j.bmcl.2019.05.048 (Bristol-Myers Squibb, 2019)
